Read-outs that look alike come from different tables or passages of the source. Marks after values point to notes of the source that are not given here.
Assays:
MDA-MB-231 xenografts = experiment: Nude mouse MDA-MB-231 tumor efficacy study; type: in vivo, athymic nude mice; settings: tail vein day 1 and 2
Procedure: Charles River Labs athymic nude mice were subcutaneous injected with 5×10^6 human tumor cells in matrigel. The tumor volume was monitored until an average tumor size of ˜150 mm^3 was obtained in the mouse population The mice were then randomized in to one of the nine treatment groups (summarized in table below) with a population of 10 mice per group (n=10). Each of the formulations were dosed at 100 μL fixed volume via tail vein injection on day 1 and day 2 of the study. Mice were weighed and the tumor volume measured every 3-4 days for 3 weeks of the study duration.

[1] = Tumor and plasma levels, H460 tumor efficacy PK group; settings: nu/nu, mouse, in vivo
Procedure: The formulations were administrated as 100 μL dose volume through tail vein injection within 30 minutes after compounds were formulated. All the mice were weighed and tumors measured twice weekly. At the last day of the study, plasma, tumor, lung, liver, spleen, left kidney, brain and legs were collected and quickly frozen for further analysis two hours post-dosing.
(§1) A portion of the tumor bearing mice were dosed as a satellite PK group. Each group was dosed as described for the tumor efficacy group, however the PK group was euthanized and tissue samples collected at 1, 3 and 6 hours post dosing on day 2. The tissues collected included blood, lung, liver and tumor. Samples were analyzed for bendamustine HCl and the corresponding ester analogue as described in the LC-MS protocol section.
(§2) Plasma and other tissues were prepared for high performance liquid chromatography (HPLC)/mass spectrometric analysis according to a standard protocol following protein precipitation with acetonitrile containing an internal standard. The samples were then analyzed for both bendamustine HCl and bendamustine esters of the invention and alprenolol (internal standard) via HPLC coupled with tandem mass spectrometry. Tissue samples were homogenized in sodium phosphate buffer and the value obtained from the assay was multiplied by 3 to correct for dilution during processing.

MB-231 (HBC) = experiment: MTS cell assay, MB-231; type: cell-based, Human; settings: Homo sapiens, 72 hours
Procedure: Charles River Labs athymic nude mice bearing MDA-MB-231 breast carcinoma cell line subcutaneous xenografts (5×10^6 cells in matrigel) were sacrificed to make a tumor isolate. Using sterile instruments and working aseptically, the tumors were removed from the euthanized animal. The tumor was placed in a 50 mL sterile conical tube and 5 mL of trypsin was added. The tumor was cut into small pieces and incubated at 37° C. for 30 minutes. After incubation, a cell strainer was placed on a second, sterile, 50 mL conical tube and the contents of the first tube were placed in the cell strainer. The tissue was forced through the filter using the flat end of a syringe plunger. The cell strainer was washed with 5 mLs of media containing FBS. The cells were spun down and the supernatant was discarded. The cells were resuspended in 20 mLs of complete media containing P/S and placed in a 75 cm flask.
(§3) Human carcinoma cells (2,000 cells/well) were incubated with the desired concentration of the test molecule (0-200 μM) for 72 hours. The cells were then incubated with MTS solution (Promega) for 1-2 hours, and the compounds effects on cell proliferation was determined by measuring the absorbance at 490 nm. Cell growth was expressed as a percent of the appropriate control (placebo). […] All data reported was the mean±SE of three independent experiments.

[2] = Tumor and plasma levels, MDA-MB-231 tumor efficacy PK group; settings: athymic nude, mouse, in vivo
Procedure: as §1, §2

H-460 (NSCLC) = experiment: MTS cell assay, H-460; type: cell-based, Human; settings: Homo sapiens, NCI-H460, 72 hours
Procedure: as §3

[3] = CD-1 mice plasma pharmacokinetics, bendamustine C14 ester albumin nanoparticle i.v.; type: in vivo; settings: mouse, iv; for Vd: Mean n = 3; for AUC(0-t): Mean n = 3, read-out: AUC0-6 of C14 Ester in plasma; for AUC(0-inf): Mean n = 3, read-out: AUC0-∞ of C14 Ester in plasma; for clearance: Mean n = 3, read-out: CL of C14 Ester; for half-life: Mean n = 3, read-out: t1/2 of C14 Ester in plasma (converted)
Procedure: Another embodiment of the invention, bendamustine C14 ester was formulated into a nanoparticle intraveneous formulation according to the methods described above and administered to CD-1 mice. The amount of bendamustine (BM1) and bendamustine C14 ester was determined in the mice plasma.

[4] = test system: H460 tumor cells (large cell lung cancer); experiment: Nude mouse H460 tumor efficacy study; type: in vivo, nu/nu mouse; settings: tail vein
Procedure: 2×10^6 cells/100 ul in the mix of medium and Matrigel (1:1 ratio) solution was injected into right back flank of each nu/nu mouse. The implanted mice were monitored and measured with electric calipers. The study started when the tumors reached ˜150 mm^3 in size. The mice were measured and randomized into 9 groups with 10 mice in each group per the below table: […]

[5] = test system: RPMI 8226 (Human Plasmacytoma, Myeloma B Cells)
Procedure: Cells (originated from ATCC) were cultured on RPMI medium. Cell suspension was centrifuged and resuspended in 50% Matrigel/HBSS to a final concentration of 7×10^7 cells/ml. The suspension was implanted s.c. in the right flank of the anesthetized mouse at a volume of 100 μl.
Seven ml saline were added to the original vial containing 3.5 mg powder resulting in 0.5 mg/ml. Three ml of this solution were added to 27 ml saline to receive 0.05 mg/ml concentration.
bendamustine preparation: 13.5 mg was dissolved in 3.6 ml of 1:1 mixture of 0.9% saline/5% mannitol just before the treatment. 1.05 ml of this solution was added to 0.95 ml diluent for 2 mg/ml solution.
1.05 ml of this solution was added to 0.95 ml diluent for 2 mg/ml solution.
On day 21, mice were sorted by the optimal average tumor volume (˜150 mm^3) and were allocated into eight groups of 9 mice each.
[formula] The analysis of weight gain and tumor volume progression was made using one-way ANOVA followed by Tukey post-hoc comparisons. Results

[6] = reported; cited from earlier work
[7] = 80 mg/kg, Ester level in plasma at 1 hour, HSA nanoparticle
[8] = 80 mg/kg, Ester level in plasma at 1 hour, Solution
[9] = 80 mg/kg, Ester level in tumor at 1 hour, HSA nanoparticle
[10] = 80 mg/kg, Ester level in tumor at 1 hour, Solution
[11] = HSA nanoparticle, 80 mg/kg Free Base Eq.
[12] = Solution, 80 mg/kg Free Base Eq.
[13] = 20 mg/kg iv on days 1 and 2, day 46
[14] = 37.5 mg/kg iv on days 1 and 2, day 46
[15] = Solution (TREANDA), 37.5 mg/kg Free Base Eq.

Q: Which results are given for CCCCCCCCCCCCCCOC(=O)CCCc1nc2cc(N(CCCl)CCCl)ccc2n1C [Bendamustine C14 Ester, 4-{5-[Bis-(chloroethyl)-amino]-1-methyl-1H-benzimidazol-2-yl}butyric acid tetradecyl ester]?
A: % Morbidity (MDA-MB-231 xenografts; HSA nanoparticle, 80 mg/kg): 60%; % Mortality (MDA-MB-231 xenografts; HSA nanoparticle, 80 mg/kg): 0%; % Tumor Inh. (MDA-MB-231 xenografts; HSA nanoparticle, 80 mg/kg): 86.5%; % Morbidity (MDA-MB-231 xenografts; Solution, 80 mg/kg): 40%; % Mortality (MDA-MB-231 xenografts; Solution, 80 mg/kg): 0%; % Tumor Inh. (MDA-MB-231 xenografts; Solution, 80 mg/kg): 90%; concentration at 1 h [1, 7]: 3650 ng/mL; concentration at 1 h [1, 8]: 32200 ng/mL; concentration at 1 h [1, 9]: 4570 ng/mL; concentration at 1 h [1, 10]: 8570 ng/mL; IC50 (MB-231 (HBC)): > 200 µM; concentration at 1 h [2, 7]: 5730 ng/mL; concentration at 1 h [2, 8]: 14 ng/mL; concentration at 1 h [2, 9]: 10400 ng/mL; concentration at 1 h [2, 10]: 396 ng/mL; IC50 (H-460 (NSCLC)): 130 µM; Vd ([3]; 30 mg/kg, 30 mg-eq/kg): 3.2 L/kg; AUC(0-t) ([3]; 30 mg/kg, 30 mg-eq/kg): 31700 ng·h/mL; AUC(0-inf) ([3]; 30 mg/kg, 30 mg-eq/kg): 31700 ng·h/mL; clearance ([3]; 30 mg/kg, 30 mg-eq/kg): 24 mL/min/kg; half-life ([3]; 30 mg/kg, 30 mg-eq/kg): 1.52 h; Vd ([3]; 55 mg/kg, 55 mg-eq/kg): 2.5 L/kg; AUC(0-t) ([3]; 55 mg/kg, 55 mg-eq/kg): 48900 ng·h/mL; AUC(0-inf) ([3]; 55 mg/kg, 55 mg-eq/kg): 49000 ng·h/mL; clearance ([3]; 55 mg/kg, 55 mg-eq/kg): 29 mL/min/kg; half-life ([3]; 55 mg/kg, 55 mg-eq/kg): 0.98 h; Vd ([3]; 80 mg/kg, 80 mg-eq/kg): 5.2 L/kg; AUC(0-t) ([3]; 80 mg/kg, 80 mg-eq/kg): 46300 ng·h/mL; AUC(0-inf) ([3]; 80 mg/kg, 80 mg-eq/kg): 46500 ng·h/mL; clearance ([3]; 80 mg/kg, 80 mg-eq/kg): 56 mL/min/kg; half-life ([3]; 80 mg/kg, 80 mg-eq/kg): 1.09 h; % Morbidity [4, 11]: 10%; % Mortality [4, 11]: 0%; % Tumor Inh. [4, 11]: 40%; % Morbidity [4, 12]: 100%; % Mortality [4, 12]: 40%; % Tumor Inh. [4, 12]: 81%

Q: What does the source list for Cn1c(CCCC(=O)O)nc2cc(N(CCCl)CCCl)ccc21 [Bendamustine, 4-[5-[bis(2-chloroethyl)amino]-1-methylbenzimidazol-2-yl]butanoic acid]?
A: % Morbidity (MDA-MB-231 xenografts; Solution, 37.5 mg/kg): 10%; % Mortality (MDA-MB-231 xenografts; Solution, 37.5 mg/kg): 0%; % Tumor Inh. (MDA-MB-231 xenografts; Solution, 37.5 mg/kg): 77%; Max BW (mean) reduction ([5]; 20 mg/kg iv on days 1 and 2): −2.7%; No. of TRD ([5]; 20 mg/kg iv on days 1 and 2): 0; No. og nTRD ([5]; 20 mg/kg iv on days 1 and 2): 0; % TGI [5, 13]: 66*** %; No. of CR [5, 13]: 0; No. of PR [5, 13]: 0; mean tumor volume, (mean ± se) [5, 13]: 205 ± 44; Max BW (mean) reduction ([5]; 37.5 mg/kg iv on days 1 and 2): −6.2%; No. of TRD ([5]; 37.5 mg/kg iv on days 1 and 2): 0; No. og nTRD ([5]; 37.5 mg/kg iv on days 1 and 2): 0; % TGI [5, 14]: 81%; No. of CR [5, 14]: 0; No. of PR [5, 14]: 0; mean tumor volume, (mean ± se) [5, 14]: 113 ± 23; concentration at 1 h ([1]; 37.5 mg/kg, BM1 level in plasma at 1 hour, Solution (TREANDA)): 1550 ng/mL; concentration at 1 h ([1]; 37.5 mg/kg, BM1 level in tumor at 1 hour, Solution (TREANDA)): 1470 ng/mL; IC50 (MB-231 (HBC)): 13 to 16 µM; concentration at 1 h ([2]; 37.5 mg/kg, BM1 level in plasma at 1 hour, Solution): 906 ng/mL; concentration at 1 h ([2]; 37.5 mg/kg, BM1 level in tumor at 1 hour, Solution): 558 ng/mL; half-life in vivo [6]: 6 to 10 min; IC50 (H-460 (NSCLC)): 4 to 26 µM; % Morbidity [4, 15]: 0/0%; % Mortality [4, 15]: 0/0%; % Tumor Inh. [4, 15]: 41.5%

Q: With COC(=O)CCCc1nc2cc(N(CCCl)CCCl)ccc2n1C [—CH3, 4-{5-[Bis-(2-chloro-ethyl)-amino]-1-methyl-1H-benzoimidazol-2-yl}-butyric acid methyl ester] as the compound, how does the IC50 (MB-231 (HBC)) read?
A: 66 µM

Q: What about the melting point of the same compound?
A: 60 to 63 °C (dec.)

Q: What about the IC50 (H-460 (NSCLC)) of the same compound?
A: 1.2 µM
